One series deals with HT-29. The experiment in a line: Anticancer activity against human HT-29 cells. The series is classed as functional, cell-based.
Another series deals with SNB-19. The experiment in a line: Anticancer activity against human SNB-19 cells. The series is classed as functional, cell-based.
Series [1] in a line: Anticancer activity against mouse NIH3T3 cells. In kind it is toxicity, cell-based.
For series [2], the system named is MCF7. The series is described as follows: Anticancer activity against human MCF7 cells. The series is classed as functional, cell-based.
The next series relates to Jurkat. The experiment in a line: Anticancer activity against human Jurkat cells. In kind it is functional, cell-based.
The test system of a further series is DU-145. The series is described as follows: Anticancer activity against human DU-145 cells. The series is classed as functional, cell-based.
The test system of the next series is NCI-H226. The experiment in a line: Anticancer activity against human NCI-H226 cells. The series is classed as functional, cell-based.
The test system of the next series is Raji. The series is described as follows: Anticancer activity against human Raji cells. In kind it is functional, cell-based.
The test system of series [3] is MCF7. The experiment in a line: Cytotoxicity against human MCF7 cells assessed as inhibition of cell growth incubated for 48 hrs by SRB assay. The series is classed as functional, cell-based. The settings on record: MCF7, 48 h.
Series [4] can be described thus: Cytotoxicity against human HEK293 cells assessed as inhibition of cell growth incubated for 48 hrs by SRB assay. The series is classed as toxicity, cell-based.
The test system of series [5] is HCT-116. The experiment in a line: Cytotoxicity against human HCT-116 cells assessed as inhibition of cell growth incubated for 48 hrs by SRB assay. In kind it is functional, cell-based. As to conditions: HCT-116, 48 h.
Series [6] concerns MCF7. The series is described as follows: Cytotoxicity against human MCF7 cells assessed as inhibition of cell growth at 20 uM incubated for 48 hrs by SRB assay relative to control. In kind it is functional. In general terms: Sulforhodamine B stains cellular protein and so reports cell mass.
Series [7] in a line: Selectivity index, ratio of IC50 for HEK293 cells to IC50 for human HCT-116 cells. The series is classed as toxicity. The settings on record: HEK293 cells versus HCT-116 cells, read-out: Ratio IC50.
In series [8] the test system is HCT-116. The series is described as follows: Cytotoxicity against human HCT-116 cells assessed as inhibition of cell growth at 20 uM incubated for 48 hrs by SRB assay relative to control. In kind it is functional.
Series [9] is described as follows: Selectivity index, ratio of IC50 for HEK293 cells to IC50 for human MCF7 cells. In kind it is toxicity. The settings on record: HEK293 cells versus MCF7 cells, read-out: Ratio IC50.
The subject of series [10] is MCF7. The series is described as follows: Anticancer activity against human MCF7 cells assessed as effect on cell viability by SRB assay. In kind it is functional, cell-based.
Series [11] in a line: Solubility of compound in SGF by UV absorbance based analysis. In kind it is physicochemical.
Series [12] in a line: Solubility of compound in SIF by UV absorbance based analysis. The series is classed as physicochemical.
A short description of series [13]: Solubility of compound in water by UV absorbance based analysis. In kind it is physicochemical.

In brackets after ≈: the same amount, converted by molar mass. Activity calls are given as the source filed them. The rule behind the calls is not given here.

The IC50 is the midpoint of a concentration-inhibition curve. For the compound `C=C(C)[C@@H]1CCC(C)=C[C@H]1C1=C(OC)C(=O)C(CCCCC)=CC1=O`, the IC50 (in the series with HT-29; with SNB-19; in [1]; in the series on MCF7 [2]; in the series with Jurkat; with DU-145) was 449 nM each time. The IC50 in the series on NCI-H226 and in the series with Raji was 449 nM each time.
For `C=C(C)[C@@H]1CCC(C)=C[C@H]1C1=C(O)C(=O)C(CCCCC)=C(C)C1=O`, the IC50 (in the series on HT-29; with SNB-19; in series [1]; in the series with MCF7 [2]; in the series with Jurkat; with DU-145) was 449 nM in each case. The IC50 in the series with NCI-H226 and with Raji was 449 nM each time.
The inhibition is the drop in the measured response relative to a control, in per cent. In the case of `C=C(C)[C@@H]1CCC(C)=C[C@H]1c1c(O)cc(CCCCC)c2c1OCN(CCCN1CCOCC1)C2`, the IC50 in the series on MCF7 [3] came out at 8800 nM; in the series with HCT-116 [5], 12100 nM. For the same compound, the IC50 at 48 h in [4] came out at 10600 nM. Besides, the inhibition at 20 µM is 76.8% in the series on MCF7 [6] and 58.5% in the series on HCT-116 [8]. For the same compound, the values for the selectivity ratio in series [7] and in series [9] were 0.8 and 1.2, respectively.
In the case of `C=C(C)[C@@H]1CCC(C)=C[C@H]1c1c(O)cc(CCCCC)c2c1OCN(c1ccccc1F)C2`, the inhibition at 20 µM was 16.6% with MCF7 [6] and 1.13% with HCT-116 [8].
As to `C=C(C)[C@@H]1CCC(C)=C[C@H]1c1c(O)cc(CCCCC)c2c1OCN(C1CC1)C2`, the results for the inhibition at 20 µM in the series on MCF7 [6] and in the series with HCT-116 [8] were 75.1% and 51.7%, respectively.
Take `Cc1ccc(Cn2nc(C(=O)N[C@@H]3C(C)(C)[C@@H]4CC[C@@]3(C)C4)cc2-c2ccc(Cl)c(C)c2)cc1`: in the series with MCF7 [10], the result was inactive.
The same measure, in the same setting: the entry for `Oc1cc2c(cc1O)CN(C(=S)NCCc1ccc(Cl)cc1)CCC2` is “inactive”.
Broadly, the solubility is the dissolved amount per volume that the medium holds. High values mean a readily soluble substance, low ones a poorly soluble substance. `O=C(/C=C/C=C/c1ccc2c(c1)OCO2)N1CCCCC1` [PIPERINE]: the solubility in series [11] amounted to 40 µg/mL (≈ 140 µM); in series [12], 60 µg/mL (≈ 210 µM); in [13], 40 µg/mL (≈ 140 µM).
As for `C=C(C)[C@@H]1CCC(C)=C[C@H]1c1c2c(c(CCCCC)c3c1OCN(CCCC)C3)CN(CCCC)CO2`, the inhibition at 20 µM in the series on MCF7 [6] and in the series with HCT-116 [8] was 0% each time.
In the case of `C=C(C)[C@@H]1CCC(C)=C[C@H]1c1c(O)cc(CCCCC)c2c1OCN(C1CCCCCC1)C2`, the inhibition at 20 µM was found to be 74.8% with MCF7 [6] and 50.9% in the series with HCT-116 [8].
Turning to `O=C(Nc1ccccc1)c1cc([N+](=O)[O-])ccc1Cl`, the outcome with MCF7 [10] was inactive.
On to `C=C(C)[C@@H]1CCC(C)=C[C@H]1c1c(O)cc(CCCCC)c2c1OCN(CCCCCC)C2`, for which the values for the IC50 with MCF7 [3] and in the series with HCT-116 [5] were 9500 nM and 19800 nM, respectively. Moreover, in series [4], the IC50 at 48 h turned out to be 23500 nM. The inhibition at 20 µM in the series with MCF7 [6] amounted to 83%; in the series with HCT-116 [8], 70.9%. The results for the selectivity ratio in series [7] and in series [9] were 1.1 and 2.4, respectively.
As for `C=C(C)[C@@H]1CCC(C)=C[C@H]1c1c(O)cc(CCCCC)c2c1OCN(CC)C2`, the figures for the IC50 with MCF7 [3] and in the series on HCT-116 [5] were 8600 nM and 22100 nM, respectively. Further, the IC50 at 48 h in series [4] is 16800 nM. Besides, the results for the inhibition at 20 µM in the series on MCF7 [6] and in the series with HCT-116 [8] were 84.3% and 57.2%, respectively. Further, the selectivity ratio turned out to be 0.7 in series [7] and 1.9 in series [9].
Consider `C=C(C)[C@@H]1CCC(C)=C[C@H]1c1c(O)cc(CCCCC)c2c1OCN(C)C2`, for which the IC50 with MCF7 [3] was 7700 nM; in the series with HCT-116 [5], 11700 nM. The IC50 at 48 h in series [4] came out at 12400 nM. The inhibition at 20 µM in the series on MCF7 [6] was found to be 85.3%; in the series on HCT-116 [8], 56.3%. Moreover, the results for the selectivity ratio in series [7] and in series [9] were 1.1 and 1.6, respectively.
As to `C=C(C)[C@@H]1CCC(C)=C[C@H]1c1c(O)cc(CCCCC)c2c1OCN(c1ccc(C(C)C)cc1)C2`, the inhibition at 20 µM was determined as 9.47% in the series with MCF7 [6] and 0% in the series with HCT-116 [8].
On to `CCCCCC1=CC(=O)C([C@@H]2C=C(C)CC[C@H]2C(C)C)=C(O)C1=O`, for which the IC50 in the series with Jurkat and in the series with Raji was 154 nM each time.
As for `C=C(C)[C@@H]1CCC(C)=C[C@H]1c1c(O)cc(CCCCC)c2c1OCN(c1cnc3ccccc3c1)C2`, the inhibition at 20 µM came to 0% in the series on MCF7 [6] and 18% with HCT-116 [8].
In the case of `COc1ccc(-c2oc3cc(OC)ccc3c2C(=O)c2ccc(C#N)cc2)cc1`, the outcome in the series on MCF7 [10] was inactive.
Take `C=C(C)[C@@H]1CCC(C)=C[C@H]1c1c(O)cc(CCCCC)c2c1OCN(c1ccccc1)C2`: the figures for the inhibition at 20 µM with MCF7 [6] and with HCT-116 [8] were 5.3% and 4.09%, respectively.
In the case of `C=C(C)[C@@H]1CCC(C)=C[C@H]1c1c(O)cc(CCCCC)c2c1OCN(CCC)C2`, the IC50 came out at 6100 nM in the series on MCF7 [3] and 7300 nM in the series with HCT-116 [5]. The IC50 at 48 h in [4] came out at 21800 nM. Moreover, the inhibition at 20 µM in the series with MCF7 [6] was found to be 82.4%; with HCT-116 [8], 62.8%. For the same compound, the values for the selectivity ratio in series [7] and in series [9] were 2.9 and 3.5, respectively.
In the case of `C=C(C)[C@@H]1CCC(C)=C[C@H]1C1=C(O)C(=O)C(CCCCC)=CC1=O`, the IC50 (in the series with HT-29; in the series on SNB-19; in series [1]; in the series on MCF7 [2]; in the series with Jurkat; with DU-145) was 449 nM in each case. The IC50 in the series on NCI-H226 and in the series with Raji was 449 nM each time.
For the compound `C=C(C)[C@@H]1CCC(C)=C[C@H]1c1c(O)cc(CCCCC)c2c1OCN(Cc1ccccc1)C2`, the inhibition at 20 µM in the series with MCF7 [6] was found to be 46.5%; with HCT-116 [8] it was 52.3%.
The matching figures for `C=C(C)[C@@H]1CCC(C)=C[C@H]1c1c(O)cc(CCCCC)c2c1OCN(c1ccc(OC(F)(F)F)cc1)C2`: 0% and 0%.
As for `Cc1cc(C)c2nc(-c3ccccn3)cc(C(=O)Nc3ccc(S(=O)(=O)Nc4onc(C)c4C)cc3)c2c1`, in the series with MCF7 [10], the outcome was inactive.

Values taken from ChEMBL document CHEMBL6071200, “Discovery of Ring-Annulated Analogues of Cannabidiol as Potential Anticancer Agents: Synthesis and Biological Evaluation” (ACS Med Chem Lett, 2024).
